Source: ChEMBL document CHEMBL1124305, “Synthesis and immunological evaluation of N-terminal, noncrossreactive tachykinin antigens” (J Med Chem, 1988)
The source made the active and inactive calls. The rule behind the calls is not given here.

Tests used:
Type in all cases: functional, organism-based
[1] = species on record: Mus musculus; test: Determination of serum specificity with immunogen 3-MBSA in ELISA against the respective tachykinins of mice; - indicates Nondetectable interaction
[2] = species on record: Mus musculus; test: Determination of serum specificity with immunogen 2-MBSA in ELISA against the respective tachykinins of mice; +++ indicates Strong recognition
[3] = species on record: Mus musculus; test: Determination of serum specificity with immunogen 1-MBSA in ELISA against the respective tachykinins of mice; - indicates Nondetectable interaction

## CSCC[C@H](NC(=O)[C@H](CC(C)C)NC(=O)CNC(=O)[C@@H](NC(=O)[C@H](Cc1ccccc1)NC(=O)[C@H](CO)NC(=O)[C@H](CC(=O)O)NC(=O)[C@@H](NC(=O)[C@H](CCCCN)NC(=O)[C@@H](N)Cc1c[nH]cn1)[C@@H](C)O)C(C)C)C(N)=O
[1]
  Specificity: inactive
[2]
  Specificity: Active
[3]
  Specificity: inactive
